Experimental data: EP0364581A1, “METHOD OF STERILIZING PLANT POLLEN” (VSESOJUZNY NAUCHNO-ISSLEDOVATELSKY INST. SELSKOKHOZYAISTV. …, priority 1988, dated 1989)

Tests used:
Assay in all cases: field test of gametocidal activity (sterilisation of anthers)
[1] = test system: Winterweizens Sorte Priboi; type: in vivo, Winterweizen; details: V. und VI. Periode, 2%ige wäßrige Emulsion, 12 kg/ha; for Prozentsatz des Ansetzens der Körner bei freier Bestäubung: control = 100
Source text: (§1) Die gametozide Aktivität der erfindungsgemäßen Sterilisationsmittel war in Feldversuch in verschiedenen bodenklimatischen Zonen mit Teilstücken von 10 m^2 Größe in drei-- bis viermaliger Wiederholung nachgewiesen. Jedes Sterilisationsmittel wurde mindestens 5 Jahre lang geprüft.
(§2) Die Entwicklung der Perioden der Organogenese wird zytologisch überwacht. Die Behandlung von Pflanzen mit dem Sterilisationsmittel erfolgt am Anfang der fünften Periode der Organogenese nach Kupermann.
(§3) Mit dem Ahrenschieben verwirklicht man die Isolierung von Hauptähren und anderen Stockwerken in Pergamentbeuteln. Bei Weizen und Tritikale werden Einzelisolatoren verwendet. Bei Roggen schließt man je 1 Ähre von 5 bis 7 verschiedenen nebeneinander befindlichen Pflanzen in einen gemeinsamen Isolator ein. Bei Hirse wird jede Rispe getrennt isoliert. Der Sterilitätsprozentsatz (X) für Weizen, Roggen, Tritikale und Hirse wird nach der Formel [formula]
(§4) Samen von unbehandelten Kontrollpflanzen ermittelt.
(§5) Die Kornzahl in nicht isolierten Ähren von Kontrollpflanzen wird bedingt für 100% Ansetzen bei freier Bestäubung angenommen.
(§6) Um zuverlässige Angaben zu erhalten, verwendet man 20 bis 25 Isolatoren jeder Wiederholung für Weizen und Tritikale, 10 bis 15 Isolatoren jeder Wiederholung für Roggen und Hirse.
Pflanzen des Winterweizens Sorte Priboi werden in der V. und VI. Periode der Organogenese (nach Kupermann) mit einer 2%igen wäßrigen Emulsion von Kaliumsalz der 2-Methyl--3-zyklohexenkarbonsäure, 2-Methyl-3-zyklohexenkarbonsäure- methylester, Pnthalsäuredipropylester, Phthalsäurediisobutylester behandelt. Die Emulsion enthält 0,01 Masse% Dimethylsulfoxid und 0,1 Masse% C12-C14 -Kalziumalkylbenzolsulfonat. Der Verbrauch an Präparat beträgt 12 kg/ha. Als Kontrolle dienen Pflanzen, behandelt mit einem Verdünner ohne Sterilisationsmittel.

[2] = test system: Winterweizens Sorte Kharkovskaya 81; type: in vivo, Winterweizen; details: V. und VI. Periode, 2%ige wäßrige Emulsion, 12 kg/ha; for Prozentsatz des Ansetzens der Körner bei freier Bestäubung: control = 100
Source text: as §1, §2, §3, §4, §5, §6
Pflanzen des Winterweizens Sorte Kharkovskaya 81 werden in der V. und VI. Periode der Organogenese (nach Kupermann) mit einer 2%igen wäßrigen Emulsion von Natriumsalz der 2-Methyl-3-zyklohexenkarbonsäure, Phthalsäuredihexylester, Ammoniumsalz der 2-Methyl-3-zyklohexenkarbon- säure, Phthalsäuredibutylester, Phthalsäurediallylester behandelt. Die Emulsion enthält 0,01 Masse% Dodezylsulfat und 0,1 Masse% C12-C14 -Kalziumalkylbenzolsulfonat. Der Verbrauch an Präparat beträgt 12 kg/ha.
Die Prüfergebnisse sind in der Tabelle 4 angeführt. Als Kontrolle dienten Pflanzen, behandelt ähnlich wie in Beispiel 1.

[3] = test system: Sommerweizens Sorte Botanicheskaya 4; type: in vivo, Sommerweizen; details: V. Periode, 1%ige wäßrige Emulsion, 8 kg/ha; for Prozentsatz des Ansetzens der Körner bei freier Bestäubung: control = 100
Source text: as §1, §2, §3, §4, §5, §6
Pflanzen des Sommerweizens Sorte Botanicheskaya 4 werden in der V. Periode der Organogenese (nach kupermann) mit einer l%igen wäßrigen Emulsion von Phthalsäuredibutylester, Phthalsauredipropylester, Natriumsalz der 2-Methyl-3-zyklo- hexenkarbonsäure, 2-Methyl-3-zyklohexenkarbonsäuremethyl- ester behandelt. Die Emulsion enthalt 0,01 Masse% Tetrahydrofuran und 0,1 Masse% C12-C14-Kalziumalkylbenzolsulfonat. Der Verbrauch an Präparat beträgt 8 kg/ha. Als Kontrolle dienen Pflanzen, behandelt mit einem Verdünner ohne Sterilisationsmittel

[4] = test system: Tritikale der Sorte PRAG-109; type: in vivo; details: V. Periode, 1%ige wäßrige Emulsion, 10 kg/ha
Source text: as §1, §2, §3, §4, §5, §6
Pflanzen Tritikale der Sorte PRAG-109 werden in der V. Periode der Organogenese (nach Kupermann) mit einer 1%igen wäßrigen Emulsion von Phthalsäuredibutylester, Phthalsäurediäthylester, Phthalsäuredihexylester, Phthalsäurediisobutylester, Kaliumsalz der 2-Methyl-3-zyklohexenkarbon- säure, 2-Methyl-3-zyklohexenkarbonsäuremethylester behandelt. Die Emulsion enthält 0,01 Masse% Dimethylsulfoxid und 0,1 Masse% C12C14- Kalziumalkylbenzolsulfonat. Der Verbrauch an Präparat beträgt 10 kg/ha. Als Kontrolle dienen Pflanzen, behandelt mit einem Verdünner ohne Sterilisationsmittel. […]
In allen Fällen dienen als Kontrolle Pflanzen, behandelt mit einem Verdünner ohne Sterilisationsmittel. Die Prüfergebnisse sind in der Tabelle 20 angeführt. […] Periode der Organogenese erhalten.

[5] = test system: Tritikale Sorte Amfidiploid 206; type: in vivo; details: V. Periode, 1%ige wäßrige Emulsion, 6 kg/ha; for Prozentsatz des Ansetzens bei freier Bestäubung: control = 100
Source text: as §1, §2, §3, §4, §5, §6
Pflanzen Tritikale Sorte Amfidiploid 206 werden in der V.Periode der Organogenese (nach Kupermann) mit einer l%igen wäßrigen Emulsion von Phthalsäuredipropylester, Phthalsäurediisobutylester, Kaliumsalz der 2-Methyl-3-zyklohexenkarbon- säure, 2-Methyl-3-zyklohexenkarbonsäuremethylester, Ammoniumsalz der 2-Methyl-3-zyklohexenkarbonsäure behandelt. Die Emulsion enthält 0,01 Masse% Tetrahydrofuran und 0,1 Masse% C12-C14-Kalziumalkylbenzolsulfonat. Der Verbrauch an Präparat beträgt 6 kg/ha. Als Kontrolle dienen Pflanzen, behandelt mit einem Verdünner ohne Sterilisationsmittel.

[6] = test system: tetraploidem Roggen Sorte Ukrainskaya; type: in vivo; details: V. Periode, wäßrige Emulsion (concentration not given), 6 kg/ha; for Prozentsatz des Ansetzens der Körner bei freier Bestäubung: control = 100
Source text: as §1, §2, §3, §4, §5, §6
Pflanzen von tetraploidem Roggen Sorte Ukrainskaya werden in der V. Periode der Organogenese (nach Kupermann) mit einer wäßrigen Emulsion von Ammoniumsalz der 2-Methyl-3--zyklohexenkarbonsäure, Phthalsäurediäthylester, Kaliumsalz der Benzoesäure, Phthalsäurediisobutylester behandelt. Die Emulsion enthält 0,01 Masse% Dimethylformamid und 0,1 Masse% C12-C14-Kalziumalkylbenzolsulfonat. Der Verbrauch an Präparat beträgt 6 kg/ha. Als Kontrolle dienen Pflanzen, behandelt mit einem Verdünner ohne Sterilisationsmittel. Die Prüfergebnisse sind in der Tabelle 11 angeführt. […] Periode der Organogenese erhalten.

SMILES: CC1C=CCCC1C(=O)[O-].[K+] (stereo not drawn) [Beispiel 14, Kaliumsalz der 2-Methyl--3-zyklohexenkarbonsäure]
- Kornzahl der Ähre bei freier Bestäubung [1]: 35,1
- Kornzahl der Ähre im Isolator [1]: 0,0
- Prozentsatz der Sterilität [1]: 100,0%
- Prozentsatz des Ansetzens der Körner bei freier Bestäubung [1]: 95,4%

SMILES: COC(=O)C1CCC=CC1C (stereo not drawn) [Beispiel 15, 2-Methyl-3-zyklohexenkarbonsäure-methylester]
- Kornzahl der Ähre bei freier Bestäubung [1]: 34,8
- Kornzahl der Ähre im Isolator [1]: 0,0
- Prozentsatz der Sterilität [1]: 100,0%
- Prozentsatz des Ansetzens der Körner bei freier Bestäubung [1]: 94,6%

SMILES: CCCOC(=O)c1ccccc1C(=O)OCCC [Beispiel 16, Pnthalsäuredipropylester]
- Kornzahl der Ähre bei freier Bestäubung [1]: 32,6
- Kornzahl der Ähre im Isolator [1]: 5,6
- Prozentsatz der Sterilität [1]: 82,6%
- Prozentsatz des Ansetzens der Körner bei freier Bestäubung [1]: 88,6%

SMILES: CC(C)COC(=O)c1ccccc1C(=O)OCC(C)C [Beispiel 17, Phthalsäurediisobutylester]
- Kornzahl der Ähre bei freier Bestäubung [1]: 33,7
- Kornzahl der Ähre im Isolator [1]: 0,0
- Prozentsatz der Sterilität [1]: 100,0%
- Prozentsatz des Ansetzens der Körner bei freier Bestäubung [1]: 91,6%

SMILES: CC1C=CCCC1C(=O)O.N (stereo not drawn) [Beispiel 20, Ammoniumsalz der 2-Methyl-3-zyklohexenkarbon-säure]
- Kornzahl der Ähre bei freier Bestäubung [2]: 31,7
- Kornzahl der Ähre im Isolator [2]: 0,0
- Prozentsatz der Sterilität [2]: 100,0%
- Prozentsatz des Ansetzens der Körner bei freier Bestäubung [2]: 93,5%

SMILES: CCCCOC(=O)c1ccccc1C(=O)OCCCC [Beispiel 21, Phthalsäuredibutylester]
- Kornzahl der Ähre bei freier Bestäubung [2]: 28,6
- Kornzahl der Ähre im Isolator [2]: 0,0
- Prozentsatz der Sterilität [2]: 100,0%
- Prozentsatz des Ansetzens der Körner bei freier Bestäubung [2]: 84,4%

SMILES: C=CCOC(=O)c1ccccc1C(=O)OCC=C [Beispiel 22, Phthalsäurediallylester]
- Kornzahl der Ähre bei freier Bestäubung [2]: 30,6
- Kornzahl der Ähre im Isolator [2]: 3,1
- Prozentsatz der Sterilität [2]: 90,3%
- Prozentsatz des Ansetzens der Körner bei freier Bestäubung [2]: 90,3%

SMILES: CCCCOC(=O)c1ccccc1C(=O)OCCCC [Beispiel 30, Phthalsäuredibutylester]
- Kornzahl der Ähre bei freier Bestäubung [3]: 30,6
- Kornzahl der Ähre im Isolator [3]: 0,2
- Prozentsatz der Sterilität [3]: 99,4%
- Prozentsatz des Ansetzens der Körner bei freier Bestäubung [3]: 81,8%
- Kornzahl der Ähre bei freier Bestäubung [4]: 66,8
- Kornzahl der Ähre im Isolator [4]: 1,0
- Prozentsatz der Sterilität [4]: 98,4%
- Prozentsatz des Ansetzens der Körner bei freier Bestäubung ([4]; control = 100): 96,8%

SMILES: CCCOC(=O)c1ccccc1C(=O)OCCC [Beispiel 31, Phthalsauredipropylester]
- Kornzahl der Ähre bei freier Bestäubung [3]: 31,5
- Kornzahl der Ähre im Isolator [3]: 0,5
- Prozentsatz der Sterilität [3]: 98,5%
- Prozentsatz des Ansetzens der Körner bei freier Bestäubung [3]: 84,2%

SMILES: CC1C=CCCC1C(=O)[O-].[Na+] (stereo not drawn) [Beispiel 32, Natriumsalz der 2-Methyl-3-zyklo-hexenkarbonsäure]
- Kornzahl der Ähre bei freier Bestäubung [3]: 32,9
- Kornzahl der Ähre im Isolator [3]: 1,0
- Prozentsatz der Sterilität [3]: 97,0%
- Prozentsatz des Ansetzens der Körner bei freier Bestäubung [3]: 88,0%

SMILES: COC(=O)C1CCC=CC1C (stereo not drawn) [Beispiel 33, 2-Methyl-3-zyklohexenkarbonsäuremethyl-ester]
- Kornzahl der Ähre bei freier Bestäubung [3]: 34,2
- Kornzahl der Ähre im Isolator [3]: 0,0
- Prozentsatz der Sterilität [3]: 100,0%
- Prozentsatz des Ansetzens der Körner bei freier Bestäubung [3]: 91,4%

SMILES: CCCOC(=O)c1ccccc1C(=O)OCCC [Beispiel 43, Phthalsäuredipropylester]
- Kornzahl der Ähre bei freier Bestäubung [5]: 31,8
- Kornzahl der Ähre im Isolator [5]: 0,0
- Prozentsatz der Sterilität [5]: 100,0%
- Prozentsatz des Ansetzens bei freier Bestäubung [5]: 87,3%

SMILES: CC(C)COC(=O)c1ccccc1C(=O)OCC(C)C [Beispiel 44, Phthalsäurediisobutylester]
- Kornzahl der Ähre bei freier Bestäubung [5]: 32,5
- Kornzahl der Ähre im Isolator [5]: 0,0
- Prozentsatz der Sterilität [5]: 100,0%
- Prozentsatz des Ansetzens bei freier Bestäubung [5]: 89,3%

SMILES: CC1C=CCCC1C(=O)O (stereo not drawn) [Beispiel 45, Kaliumsalz der 2-Methyl-3-zyklohexenkarbon-säure]
- Kornzahl der Ähre bei freier Bestäubung [5]: 31,8
- Kornzahl der Ähre im Isolator [5]: 0,1
- Prozentsatz der Sterilität [5]: 99,7%
- Prozentsatz des Ansetzens bei freier Bestäubung [5]: 87,3%

SMILES: COC(=O)C1CCC=CC1C (stereo not drawn) [Beispiel 46, 2-Methyl-3-zyklohexenkarbonsäuremethylester]
- Kornzahl der Ähre bei freier Bestäubung [5]: 32,6
- Kornzahl der Ähre im Isolator [5]: 0,0
- Prozentsatz der Sterilität [5]: 100,0%
- Prozentsatz des Ansetzens bei freier Bestäubung [5]: 89,6%

SMILES: CC1C=CCCC1C(=O)O (stereo not drawn) [Beispiel 47, Ammoniumsalz der 2-Methyl-3-zyklohexenkarbonsäure]
- Kornzahl der Ähre bei freier Bestäubung [5]: 37,5
- Kornzahl der Ähre im Isolator [5]: 6,8
- Prozentsatz der Sterilität [5]: 79,7%
- Prozentsatz des Ansetzens bei freier Bestäubung [5]: 103,1%

SMILES: CC1C=CCCC1C(=O)O (stereo not drawn) [Beispiel 56, Ammoniumsalz der 2-Methyl-3--zyklohexenkarbonsäure]
- Kornzahl der Ähre bei freier Bestäubung [6]: 32,1
- Kornzahl der Ähre im Isolator [6]: 0,0
- Prozentsatz der Sterilität [6]: 100,0%
- Prozentsatz des Ansetzens der Körner bei freier Bestäubung [6]: 87,2%

SMILES: CCOC(=O)c1ccccc1C(=O)OCC [Beispiel 57, Phthalsäurediäthylester]
- Kornzahl der Ähre bei freier Bestäubung [6]: 30,7
- Kornzahl der Ähre im Isolator [6]: 0,0
- Prozentsatz der Sterilität [6]: 100,0%
- Prozentsatz des Ansetzens der Körner bei freier Bestäubung [6]: 83,4%

SMILES: O=C(O)c1ccccc1 [Beispiel 58, Kaliumsalz der Benzoesäure]
- Kornzahl der Ähre bei freier Bestäubung [6]: 35,8
- Kornzahl der Ähre im Isolator [6]: 4,2
- Prozentsatz der Sterilität [6]: 85,0%
- Prozentsatz des Ansetzens der Körner bei freier Bestäubung [6]: 97,3%

SMILES: CC(C)COC(=O)c1ccccc1C(=O)OCC(C)C [Beispiel 59, Phthalsäurediisobutylester]
- Kornzahl der Ähre bei freier Bestäubung [6]: 34,7
- Kornzahl der Ähre im Isolator [6]: 0,0
- Prozentsatz der Sterilität [6]: 100,0%
- Prozentsatz des Ansetzens der Körner bei freier Bestäubung [6]: 94,2%
